Molecules are shown by their SMILES. Calls of active or inactive are those of the source. No stated cut-off is given here; in the data, actives have a measured IC50 and inactives only a lower limit.

In the assay the target is Envelope glycoprotein gp160 (Human immunodeficiency virus 1, UniProt Q6QLK5). Nature of the assay: cell-free HIV fusion peptide-binding blockers – biochemical, uHTS, fluorescence dequenching, […] (AID 1986).
Sequence of Envelope glycoprotein gp160 (Q6QLK5 whole entry, the tested form may be a part): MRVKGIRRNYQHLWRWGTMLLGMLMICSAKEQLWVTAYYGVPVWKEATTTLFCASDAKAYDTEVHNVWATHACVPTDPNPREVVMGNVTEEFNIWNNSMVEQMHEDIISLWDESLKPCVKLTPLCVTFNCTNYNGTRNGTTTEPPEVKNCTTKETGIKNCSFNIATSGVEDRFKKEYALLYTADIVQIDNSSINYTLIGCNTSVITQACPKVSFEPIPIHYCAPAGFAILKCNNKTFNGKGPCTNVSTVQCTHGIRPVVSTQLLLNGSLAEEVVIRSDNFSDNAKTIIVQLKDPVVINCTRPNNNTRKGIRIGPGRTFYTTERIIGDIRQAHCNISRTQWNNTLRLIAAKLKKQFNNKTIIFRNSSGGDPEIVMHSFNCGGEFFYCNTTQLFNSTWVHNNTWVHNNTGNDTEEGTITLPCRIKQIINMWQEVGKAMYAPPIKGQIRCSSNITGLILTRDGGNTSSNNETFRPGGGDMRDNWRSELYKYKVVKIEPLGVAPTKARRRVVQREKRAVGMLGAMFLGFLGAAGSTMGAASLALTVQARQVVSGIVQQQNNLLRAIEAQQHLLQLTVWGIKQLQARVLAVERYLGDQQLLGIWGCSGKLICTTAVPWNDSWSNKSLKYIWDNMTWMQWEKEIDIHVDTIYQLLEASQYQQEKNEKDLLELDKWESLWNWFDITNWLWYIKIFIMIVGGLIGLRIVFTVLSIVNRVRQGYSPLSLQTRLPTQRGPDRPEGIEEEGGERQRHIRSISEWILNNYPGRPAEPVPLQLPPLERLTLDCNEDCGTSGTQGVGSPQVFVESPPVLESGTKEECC
As a reminder, the IC50 is the concentration at which inhibition is half-maximal. In the case of `COc1cc([N+](=O)[O-])cc(/C=C2/SC(=S)N(Cc3ccccc3)C2=O)c1O`, the IC50 was 32.6 µM (active).
In the case of `CC(=O)Nc1sc(/C(C#N)=C/c2ccc(Cl)c(Cl)c2)nc1-c1ccc(C)cc1`, the IC50 is 2.04 µM (active).
Regarding `O=C(O)c1ccc(N2C(=O)/C(=C/c3ccc(-c4ccc([N+](=O)[O-])cc4)o3)C=C2c2ccccc2)cc1`, the IC50 was 9.9 µM (active).
Take `CCOC(=O)C1=C(C)N=c2s/c(=C\c3ccc(OCC(=O)O)cc3)c(=O)n2C1c1ccc(Cl)cc1` (centres undefined): the IC50 is 13.8 µM (active).

Values taken from ChEMBL document CHEMBL1201862, “PubChem BioAssay data set” (2004).
